Measured values as given in patent publication US7615231B2, “Methods for enhancing the morphology, tone, texture and/or appearance of skin or hair using a meadowlactone” (Fan Tech, Ltd., priority 2005, dated 2009).

Assays:
[1] = Solubility of the Meadowlactone as a function of pH in aqueous systems; assay type: physicochemical
Procedure: Solubility of the Meadowlactone as a function of pH was determined in aqueous systems.
In these experiments, 2 weight percent of Meadowlactone was mixed with water at room temperature. The pH of this mixture was varied, starting at an acidic pH and terminating at an alkaline pH. The clarity of the mixture was observed, and the mixture was photographed, at different pH levels (varying by one pH unit at a time).

[2] = system: skin; assay: Initial use trials of skin creams containing the Meadowlactone; assay type: in vivo
[3] = Analytical results on purified Meadowlactone (stability); assay type: physicochemical
Excerpt: The purified Meadowlactone was identified and subsequently quantified by infrared spectroscopy and HPLC coupled with an evaporative light-scattering detector.

oil / water solubility of the isomeric structures ([1]; 2 weight percent in water at room temperature, pH varied from acidic to alkaline, clarity observed): oil soluble | stability [3]: extended stability
SMILES: CCCCCCCCCCCCCCCC1CCCC(=O)O1 (stereo not shown) [Meadowlactone, Meadowfoam Delta Lactone]
forms present at the pH reported for human skin ([1]; pH from about 4.5 to about 5.5): both the Meadowlactone and the 5-hydroxy fatty acid exist together in equilibrium | skin moisturization [2]: very effective
